In ChEMBL document CHEMBL1201862, “PubChem BioAssay data set” (2004):
Activity calls are given as the source filed them.

Legend:
[1] = biological target: T1, Delta-type opioid receptor (Homo sapiens, UniProt P41143); assay: HTS Image-Based Screen for Antagonists of the DOR Receptor. [Related pubchem assays (depositor defined):AID1777, AID1785, AID1786, AID2133]; type: functional
[2] = luciferase reporter signal suppression in cells – H4 neuroglioma cells, luminescence, dose response (AID 1990); type: functional, cell-based
[3] = biological target: Mu-type opioid receptor (Homo sapiens, UniProt P35372); assay: HTS Image-Based Screen for Agonists of the MOR Receptor. [Related pubchem assays (depositor defined):AID1777, AID1785, AID1786, AID2133]; type: functional;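 also: imaging of beta-arrestin GFP recruitment into spots after receptor activation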
[4] = biological target: T1, Delta-type opioid receptor; assay: HTS Image-Based Screen for Agonists of the DOR Receptor. [Related pubchem assays (depositor defined):AID1777, AID1786, AID2133]; type: functional
[5] = system: BJ; assay: BJ-TERT fibroblast viability loss – cell-based, RAS-independent, luminescence, dose response (AID 1933); type: functional; details: Homo sapiens
[6] = Luminescence Cell-Based Dose Response HTS to Identify Inhibitors of 5'UTR Stem-Loop Driven Prion Protein mRNA Translation in H4 Neuroglioblastoma Cells. [Related pubchem assays: 1827 (Project Summary), 1813 (Primary HTS)]; type: functional
[7] = alpha-synuclein stem-loop luciferase translation blockers – H4 neuroglioma cells, luminescence, confirmation (AID 1988); type: functional, cell-based
[8] = system: BJ; assay: cells; type: functional, cell-based; details: Homo sapiens
[9] = biological target: T2, Kappa-type opioid receptor (Homo sapiens, UniProt P41145); type: functional
[10] = biological target: T2, Kappa-type opioid receptor; type: functional; remark: listed apart in the source
[11] = system: BJ; assay: BJ-TERT-LT-ST fibroblast viability loss – cell-based, RAS-independent, luminescence, dose response (AID 1935); type: functional; details: Homo sapiens;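 also: BJ fibroblasts immortalized with TERT plus LT and ST oncogenes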
[12] = DRD fibroblast viability loss – cell-based, non-viral oncogenic, luminescence, dose response (AID 1934); type: functional; details: Homo sapiens
[13] = THP-1 cell cytotoxicity, dose response, cytotoxicity control for non-replicating M. tuberculosis project (AID 489025); type: functional
[14] = HepG2 cell cytotoxicity, dose response, cytotoxicity control for non-replicating M. tuberculosis project (AID 489018); type: functional; details: Mycobacterium tuberculosis
[15] = Vero E6 cell cytotoxicity, dose response, cytotoxicity control for non-replicating M. tuberculosis project, secondary assay (AID 492998); type: functional, VeroE6; details: Vero C1008
[16] = cells; type: functional
[17] = system: INS1; assay: INS-1E survival protection against cytokine death – cell-based, luminescence, retest, dose response (AID 449756); type: functional; details: Rattus norvegicus;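 also: cell death triggered by IL-1 beta plus TNF-alpha plus IFN-gamma mixture; protective hits raise ATP signal compared with cytokine alone wells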
[18] = biological target: 26S proteasome non-ATPase regulatory subunit 14 (Homo sapiens, UniProt O00487); assay: inhibition of proteasome subunit RPN11 – biochemical, fluorescence polarization, uHTS hits, confirmation (AID 602368); type: functional
[19] = biological target: 72 kDa type IV collagenase (Homo sapiens, UniProt P08253); assay: Dose Response validation of uHTS RPN11 inhibitor hits using a MMP-2 Fluorescence assay.; type: functional
[20] = biological target: Prothrombin (Bos taurus, UniProt P00735); assay: thrombin protease inhibitors – biochemical, fluorescence polarization, uHTS hits, dose response (AID 602369); type: functional
[21] = cytotoxicity toward MDA-MB-231 breast cancer cells – cell-based, CellTiter-Glo luminescence, cherry-pick, cytotoxicity control for RAD54 inhibitor project, dose response (AID 651692); type: functional
[22] = biological target: DNA repair and recombination protein RAD54-like (Homo sapiens, UniProt Q92698); assay: RAD54 Holliday junction migration blockers – biochemical, fluorescence, cherry-picked samples, dose series, confirmation (AID 651657); type: functional
[23] = biological target: T3, Tyrosine-protein phosphatase non-receptor type 7 (Homo sapiens, UniProt P35236); type: functional
T3 sequence (P35236 whole entry): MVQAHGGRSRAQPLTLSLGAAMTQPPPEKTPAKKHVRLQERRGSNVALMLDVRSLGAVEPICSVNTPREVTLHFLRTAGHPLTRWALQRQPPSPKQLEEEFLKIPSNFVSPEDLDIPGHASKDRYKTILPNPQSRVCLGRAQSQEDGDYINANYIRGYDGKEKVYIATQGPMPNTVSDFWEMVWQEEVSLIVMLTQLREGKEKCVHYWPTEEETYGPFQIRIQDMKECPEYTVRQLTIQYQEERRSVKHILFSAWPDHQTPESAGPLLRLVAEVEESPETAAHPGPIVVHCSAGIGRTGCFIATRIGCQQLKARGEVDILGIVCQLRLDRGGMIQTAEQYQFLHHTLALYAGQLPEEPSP

[24] = biological target: T4, Tyrosine-protein phosphatase non-receptor type 22 (Homo sapiens, UniProt Q9Y2R2); type: functional
T4 sequence (Q9Y2R2 whole entry): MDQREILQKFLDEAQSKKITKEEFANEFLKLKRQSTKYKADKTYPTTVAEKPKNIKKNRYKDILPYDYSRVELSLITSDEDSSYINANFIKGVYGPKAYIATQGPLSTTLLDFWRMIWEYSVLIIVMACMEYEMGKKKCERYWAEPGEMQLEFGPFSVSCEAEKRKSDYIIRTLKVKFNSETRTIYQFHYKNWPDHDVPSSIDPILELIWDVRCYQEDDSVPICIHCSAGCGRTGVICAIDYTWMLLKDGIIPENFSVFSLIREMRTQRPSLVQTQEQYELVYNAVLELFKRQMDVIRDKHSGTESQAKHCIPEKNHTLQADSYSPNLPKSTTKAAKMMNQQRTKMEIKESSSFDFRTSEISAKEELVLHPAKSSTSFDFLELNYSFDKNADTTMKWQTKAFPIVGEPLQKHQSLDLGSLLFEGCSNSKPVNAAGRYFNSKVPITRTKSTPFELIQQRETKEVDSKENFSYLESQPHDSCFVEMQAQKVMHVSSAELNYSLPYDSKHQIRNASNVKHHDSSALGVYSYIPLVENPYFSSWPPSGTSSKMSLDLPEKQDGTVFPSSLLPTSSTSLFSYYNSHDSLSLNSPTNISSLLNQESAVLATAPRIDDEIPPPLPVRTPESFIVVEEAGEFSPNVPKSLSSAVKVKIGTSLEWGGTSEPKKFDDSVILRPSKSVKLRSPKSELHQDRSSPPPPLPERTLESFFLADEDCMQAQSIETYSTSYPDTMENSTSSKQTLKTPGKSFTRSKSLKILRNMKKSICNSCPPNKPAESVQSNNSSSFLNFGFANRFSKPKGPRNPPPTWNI

[25] = biological target: T4, Tyrosine-protein phosphatase non-receptor type 22; type: functional; remark: listed apart in the source
[26] = biological target: Intestinal-type alkaline phosphatase (Mus musculus, UniProt P24822); assay: PubChem AID 488785; type: functional
[27] = biological target: T5, Alkaline phosphatase, tissue-nonspecific isozyme (Homo sapiens, UniProt P05186); assay: TNAP enzyme inhibition by screening hits, dose response, selectivity assay for mouse IAP inhibitor project, biochemical, human TNAP, uHTS hits (AID 488906); type: functional
T5 sequence (P05186 whole entry): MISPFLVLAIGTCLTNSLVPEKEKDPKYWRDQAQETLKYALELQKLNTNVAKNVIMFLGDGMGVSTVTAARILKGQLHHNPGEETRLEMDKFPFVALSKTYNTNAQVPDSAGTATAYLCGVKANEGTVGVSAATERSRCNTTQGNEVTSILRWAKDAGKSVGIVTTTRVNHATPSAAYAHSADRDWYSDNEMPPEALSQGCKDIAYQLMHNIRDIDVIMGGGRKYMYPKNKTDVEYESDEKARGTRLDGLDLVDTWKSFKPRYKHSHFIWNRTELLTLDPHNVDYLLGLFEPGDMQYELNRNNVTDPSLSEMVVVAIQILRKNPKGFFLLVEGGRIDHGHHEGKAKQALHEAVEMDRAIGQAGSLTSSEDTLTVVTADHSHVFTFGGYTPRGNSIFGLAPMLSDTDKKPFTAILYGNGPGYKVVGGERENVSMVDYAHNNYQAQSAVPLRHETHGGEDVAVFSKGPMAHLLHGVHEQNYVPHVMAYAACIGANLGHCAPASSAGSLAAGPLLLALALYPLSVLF

[28] = biological target: Intestinal-type alkaline phosphatase (Homo sapiens, UniProt P09923); assay: inhibition of human intestinal alkaline phosphatase – biochemical, dose response (AID 488876); type: functional
[29] = Luminescence Cell-Based Dose Response HTS to Identify Inhibitors of Luciferase Translation or Activity in H4-C Neuroglioblastoma Cells. [Related pubchem assays: 1813 (Primary HTS), 1827 (Project Summary)]; type: functional
[30] = Luminescence Cell-Based Dose Response HTS to Identify Activators of Luciferase Translation or Activity in H4-C Neuroglioblastoma Cells. [Related pubchem assays: 1829 (Project Summary), 1814 (Primary HTS)]; type: functional
[31] = luciferase reporter signal reduction – luminescence, H4-C neuroglioblastoma cells, dose response (AID 2458); type: functional, cell-based;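 also: H4 neuroglioblastoma cells stably carrying a luciferase reporter gene fusion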
[32] = Luminescence Cell-Based Dose Retest to Confirm Activators of 5'UTR Stem-Loop Driven Alpha-Synuclein mRNA Translation in H4 Neuroglioblastoma Cells. [Related pubchem assays (depositor defined):AID1813, AID1829]; type: functional
[33] = Luminescence Cell-Based Dose Response HTS to Identify Activators of 5'UTR Stem-Loop Driven Prion Protein mRNA Translation in H4-C Neuroglioblastoma Cells. [Related pubchem assays: 1829 (Project Summary), 1814 (Primary HTS)]; type: functional
[34] = Luminescence Cell-Based Dose HTS Response to Identify Inhibitors of 5'UTR Stem-Loop Driven Prion Protein mRNA Translation in H4-C Neuroglioblastoma Cells. [Related pubchem assays (depositor defined):AID1814, AID1827]; type: functional
[35] = cells; type: functional, cell-based
[36] = Luminescence Cell-Based Dose Confirmation HTS to Identify Inhibitors of 5'UTR Stem-Loop Driven Alpha-Synuclein mRNA Translation in H4 Neuroglioblastoma Cells. [Related pubchem assays: 1827 (Project Summary), 1813 (Primary HTS)]; type: functional
[37] = alpha-synuclein stem-loop translation blockers – luminescence, H4 neuroglioblastoma cells, dose confirmation, confirmation (AID 2454); type: functional, cell-based;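 also: H4 neuroglioblastoma cells carrying an alpha-synuclein 5'UTR luciferase reporter; potency for inhibition of the luciferase signal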
[38] = biological target: Lysine-specific demethylase 4C (Homo sapiens, UniProt Q9H3R0); assay: inhibition of JMJD2C H3K9me3 demethylation – biochemical, DELFIA europium, cherry-picked samples, dose response (AID 488835); type: functional
[39] = biological target: T6, Mannose-6-phosphate isomerase (Homo sapiens, UniProt P34949); assay: phosphomannose isomerase inhibition – biochemical, fluorescence intensity, confirmation (AID 1535)
T6 sequence (P34949 whole entry): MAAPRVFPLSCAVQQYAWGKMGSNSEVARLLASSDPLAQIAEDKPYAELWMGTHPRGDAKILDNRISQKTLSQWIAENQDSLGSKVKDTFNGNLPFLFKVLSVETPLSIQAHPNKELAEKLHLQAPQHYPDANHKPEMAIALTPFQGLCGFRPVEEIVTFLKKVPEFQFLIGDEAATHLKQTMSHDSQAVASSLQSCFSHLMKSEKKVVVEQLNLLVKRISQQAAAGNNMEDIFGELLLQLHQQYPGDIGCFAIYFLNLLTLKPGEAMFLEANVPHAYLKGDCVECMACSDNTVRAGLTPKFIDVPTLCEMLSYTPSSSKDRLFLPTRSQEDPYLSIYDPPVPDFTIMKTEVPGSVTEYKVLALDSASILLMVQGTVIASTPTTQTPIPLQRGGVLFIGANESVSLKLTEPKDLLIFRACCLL

[40] = biological target: Phosphomannomutase 2 (Homo sapiens, UniProt O15305); assay: Counter screen SAR assay for PMM2 inhibitors via a fluorescence intensity assay. [Related pubchem assays (depositor defined):AID1545, AID1574]
[41] = biological target: Voltage-dependent T-type calcium channel subunit alpha-1H (Homo sapiens, UniProt O95180); assay: human CACNA1H calcium influx blockade – cell-based, synthetic library set 2, HEK293 HH8, Fluo-4, SAR follow-up (AID 493023); type: functional

T2 sequence (P41145 whole entry): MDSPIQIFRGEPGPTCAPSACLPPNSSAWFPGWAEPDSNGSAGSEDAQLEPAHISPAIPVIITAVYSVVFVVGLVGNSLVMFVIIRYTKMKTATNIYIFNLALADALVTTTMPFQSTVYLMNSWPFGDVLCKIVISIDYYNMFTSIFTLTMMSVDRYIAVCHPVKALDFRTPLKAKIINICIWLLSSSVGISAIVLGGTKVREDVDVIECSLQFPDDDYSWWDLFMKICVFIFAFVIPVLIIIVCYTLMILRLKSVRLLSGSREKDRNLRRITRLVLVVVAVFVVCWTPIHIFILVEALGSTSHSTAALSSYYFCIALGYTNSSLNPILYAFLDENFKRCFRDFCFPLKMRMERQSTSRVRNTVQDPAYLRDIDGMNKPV
T1 sequence (P41143 whole entry): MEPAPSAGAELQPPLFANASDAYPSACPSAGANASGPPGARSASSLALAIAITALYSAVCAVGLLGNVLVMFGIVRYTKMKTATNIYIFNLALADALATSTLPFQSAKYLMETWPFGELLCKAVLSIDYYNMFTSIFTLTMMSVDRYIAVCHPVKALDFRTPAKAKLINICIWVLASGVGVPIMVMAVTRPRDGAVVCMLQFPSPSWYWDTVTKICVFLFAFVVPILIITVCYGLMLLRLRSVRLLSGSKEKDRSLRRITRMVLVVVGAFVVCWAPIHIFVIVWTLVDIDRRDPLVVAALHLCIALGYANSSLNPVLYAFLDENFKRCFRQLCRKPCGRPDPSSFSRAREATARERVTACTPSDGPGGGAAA
Intestinal-type alkaline phosphatase (Mus musculus, UniProt P24822), sequence (P24822 whole entry): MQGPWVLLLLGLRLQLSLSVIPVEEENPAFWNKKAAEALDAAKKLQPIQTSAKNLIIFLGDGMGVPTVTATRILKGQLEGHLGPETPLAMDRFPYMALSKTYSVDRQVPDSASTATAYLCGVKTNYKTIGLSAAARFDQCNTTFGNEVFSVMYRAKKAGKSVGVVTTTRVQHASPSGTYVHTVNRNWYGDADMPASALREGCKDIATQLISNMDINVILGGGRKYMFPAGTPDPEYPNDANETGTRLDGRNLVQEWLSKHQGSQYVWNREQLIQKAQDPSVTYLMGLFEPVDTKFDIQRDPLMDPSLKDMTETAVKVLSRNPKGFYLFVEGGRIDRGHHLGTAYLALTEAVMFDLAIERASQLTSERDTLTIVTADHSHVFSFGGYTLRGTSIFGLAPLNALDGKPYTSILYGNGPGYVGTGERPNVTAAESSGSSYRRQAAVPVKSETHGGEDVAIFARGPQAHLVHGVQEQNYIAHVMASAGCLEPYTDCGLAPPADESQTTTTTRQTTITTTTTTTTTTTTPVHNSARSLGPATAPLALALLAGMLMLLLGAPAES
DNA repair and recombination protein RAD54-like, sequence (Q92698 whole entry): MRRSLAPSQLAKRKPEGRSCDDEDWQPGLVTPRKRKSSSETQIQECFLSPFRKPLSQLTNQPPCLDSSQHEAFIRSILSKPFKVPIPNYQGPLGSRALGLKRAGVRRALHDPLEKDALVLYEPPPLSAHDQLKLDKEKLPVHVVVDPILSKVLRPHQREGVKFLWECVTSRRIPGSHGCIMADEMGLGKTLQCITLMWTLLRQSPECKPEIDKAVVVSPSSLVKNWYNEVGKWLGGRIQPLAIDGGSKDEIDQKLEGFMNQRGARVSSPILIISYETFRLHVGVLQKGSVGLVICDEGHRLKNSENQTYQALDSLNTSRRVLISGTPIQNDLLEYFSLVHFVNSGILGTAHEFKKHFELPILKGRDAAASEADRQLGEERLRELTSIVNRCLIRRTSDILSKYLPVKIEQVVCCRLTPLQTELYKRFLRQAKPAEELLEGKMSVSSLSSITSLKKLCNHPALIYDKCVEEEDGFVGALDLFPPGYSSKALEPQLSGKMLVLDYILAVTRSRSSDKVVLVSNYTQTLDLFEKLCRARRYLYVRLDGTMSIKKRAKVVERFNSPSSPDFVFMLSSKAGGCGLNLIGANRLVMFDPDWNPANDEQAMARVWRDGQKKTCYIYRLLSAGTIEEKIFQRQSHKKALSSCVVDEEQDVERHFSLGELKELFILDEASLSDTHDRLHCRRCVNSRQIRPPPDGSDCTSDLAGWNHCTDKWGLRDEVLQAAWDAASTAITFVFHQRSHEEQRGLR
Intestinal-type alkaline phosphatase (Homo sapiens, UniProt P09923), sequence (P09923 whole entry): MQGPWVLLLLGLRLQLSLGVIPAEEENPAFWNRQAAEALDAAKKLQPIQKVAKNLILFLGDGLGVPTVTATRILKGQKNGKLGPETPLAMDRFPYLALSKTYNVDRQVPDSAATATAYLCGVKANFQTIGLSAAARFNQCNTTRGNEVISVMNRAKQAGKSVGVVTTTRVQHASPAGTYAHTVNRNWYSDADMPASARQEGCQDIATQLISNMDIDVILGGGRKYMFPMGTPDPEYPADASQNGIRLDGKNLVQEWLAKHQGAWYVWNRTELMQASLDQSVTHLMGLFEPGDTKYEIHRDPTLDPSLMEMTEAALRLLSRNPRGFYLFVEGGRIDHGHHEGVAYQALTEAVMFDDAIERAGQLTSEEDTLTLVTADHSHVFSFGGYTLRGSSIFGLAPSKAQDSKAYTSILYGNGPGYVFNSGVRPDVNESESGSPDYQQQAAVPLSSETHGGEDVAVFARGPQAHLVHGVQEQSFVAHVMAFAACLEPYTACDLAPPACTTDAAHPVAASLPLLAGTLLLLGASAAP
26S proteasome non-ATPase regulatory subunit 14, sequence (O00487 whole entry): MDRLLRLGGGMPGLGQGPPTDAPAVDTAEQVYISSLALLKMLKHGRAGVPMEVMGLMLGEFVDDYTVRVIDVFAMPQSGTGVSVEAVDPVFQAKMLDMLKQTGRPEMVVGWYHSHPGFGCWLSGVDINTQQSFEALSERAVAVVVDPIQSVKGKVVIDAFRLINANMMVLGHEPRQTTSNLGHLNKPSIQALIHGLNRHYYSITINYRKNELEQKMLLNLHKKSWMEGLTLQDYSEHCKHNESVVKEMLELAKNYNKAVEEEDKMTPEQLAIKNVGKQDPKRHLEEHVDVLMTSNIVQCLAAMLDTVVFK
72 kDa type IV collagenase, sequence (P08253 whole entry): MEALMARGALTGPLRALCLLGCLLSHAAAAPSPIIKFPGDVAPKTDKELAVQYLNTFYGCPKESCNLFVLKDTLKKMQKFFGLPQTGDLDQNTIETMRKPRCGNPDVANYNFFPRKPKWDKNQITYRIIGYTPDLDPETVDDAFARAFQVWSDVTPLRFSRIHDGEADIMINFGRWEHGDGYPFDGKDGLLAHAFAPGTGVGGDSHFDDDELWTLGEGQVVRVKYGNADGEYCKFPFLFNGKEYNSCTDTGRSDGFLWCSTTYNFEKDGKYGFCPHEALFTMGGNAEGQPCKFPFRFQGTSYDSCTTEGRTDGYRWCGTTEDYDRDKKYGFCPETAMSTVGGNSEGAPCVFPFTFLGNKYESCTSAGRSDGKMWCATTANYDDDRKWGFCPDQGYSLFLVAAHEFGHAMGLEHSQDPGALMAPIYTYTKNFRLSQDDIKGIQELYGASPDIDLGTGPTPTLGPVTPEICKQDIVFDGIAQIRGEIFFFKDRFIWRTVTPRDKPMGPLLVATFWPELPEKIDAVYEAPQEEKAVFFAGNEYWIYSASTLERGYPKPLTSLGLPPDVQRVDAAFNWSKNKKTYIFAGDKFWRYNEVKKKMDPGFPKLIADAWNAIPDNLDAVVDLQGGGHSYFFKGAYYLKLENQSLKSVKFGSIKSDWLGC
Mu-type opioid receptor, sequence (P35372 whole entry): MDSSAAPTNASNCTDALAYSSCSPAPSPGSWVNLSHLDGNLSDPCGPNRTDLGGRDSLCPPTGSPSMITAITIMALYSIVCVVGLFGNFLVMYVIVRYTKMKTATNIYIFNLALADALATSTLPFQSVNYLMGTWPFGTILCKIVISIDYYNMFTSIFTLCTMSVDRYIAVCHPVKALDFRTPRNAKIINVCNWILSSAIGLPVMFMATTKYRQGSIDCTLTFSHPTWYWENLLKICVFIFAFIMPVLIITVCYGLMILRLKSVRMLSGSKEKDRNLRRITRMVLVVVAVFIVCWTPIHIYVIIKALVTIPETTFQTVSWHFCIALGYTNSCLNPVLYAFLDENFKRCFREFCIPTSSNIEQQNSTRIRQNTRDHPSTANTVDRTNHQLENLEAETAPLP
Phosphomannomutase 2, sequence (O15305 whole entry): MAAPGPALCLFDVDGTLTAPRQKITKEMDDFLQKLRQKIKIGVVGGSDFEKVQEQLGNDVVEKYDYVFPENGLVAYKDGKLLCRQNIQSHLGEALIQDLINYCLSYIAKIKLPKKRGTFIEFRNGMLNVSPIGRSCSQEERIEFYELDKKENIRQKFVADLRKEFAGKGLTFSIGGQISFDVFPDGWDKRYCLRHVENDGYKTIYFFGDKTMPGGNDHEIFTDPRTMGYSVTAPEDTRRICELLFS

SMILES: COc1cc2ccccc2cc1C(=O)Nc1sc2c(c1C(N)=O)CCN(C(C)C)C2
- IC50 [1]: > 32 µM (inactive)
- EC50 [2]: > 120 µM (not active)
- EC50 [3]: > 32 µM (inactive)
- EC50 [4]: > 32 µM (inactive)
- EC50 [5]: 6.33 µM (active)
- EC50 [6]: > 120 µM (not active)
- EC50 [7]: > 120 µM (not active)
- EC50 [8]: 13.6 µM (active)
- EC50 [9]: 2 µM
- EC50 [10]: 14.8 µM
- EC50 [11]: 6.85 µM (inconclusive)
- EC50 [12]: 7.16 µM (active)
- CC50 [13]: 11.6 µM (active)
- CC50 [14]: 10.8 µM (active)
- CC50 [15]: 4.6 µM (active)
- IC50 [16]: 11.9 µM (active)
- AC50 [17]: 7.78 µM (active)
- IC50 [18]: 18.1 µM (active)
- IC50 [19]: > 100 µM (inactive)
- IC50 [20]: 15.1 µM (active)
- AC50 [21]: 16 µM (active)
- AC50 [22]: 9.33 µM (active)

SMILES: Cc1cccnc1-n1c(C)nc2ccccc2c1=O
- IC50 [23]: > 79.4 µM (inactive)
- IC50 [24]: > 79.4 µM (inactive)
- IC50 [25]: > 79.4 µM (inactive)

SMILES: O=C(CCN1C(=O)/C(=C/c2ccco2)SC1=S)Nc1ccc(O)cc1C(=O)O
- IC50 [26]: 1.51 µM (active)
- IC50 [27]: 19.6 µM (active)
- IC50 [28]: > 100 µM (inactive)

SMILES: O=C(c1ccc(C[S+]([O-])c2ccccc2Cl)o1)N1CCN(c2ccccc2)CC1 (configuration not stated)
- EC50 [29]: 1.46 µM (active)
- EC50 [30]: 1.46 µM (inconclusive)
- EC50 [2]: 8.01 µM (active)
- EC50 [31]: 1.16 µM (active)
- EC50 [32]: 0.811 µM (inconclusive)
- EC50 [33]: 0.464 µM (inconclusive)
- EC50 [34]: 0.464 µM (active)
- EC50 [5]: 1.18 µM (active)
- EC50 [35]: > 12 µM (not active)
- EC50 [7]: < 0.1 µM (active)
- EC50 [8]: 25.9 µM (active)
- EC50 [36]: 0.811 µM (active)
- EC50 [11]: 1.22 µM (active)
- EC50 [12]: 0.614 µM (active)
- EC50 [37]: 2.83 µM (active)

SMILES: CCOC(=O)C1=CC(=C2C(=O)N(CC)C(=S)N(CC)C2=O)c2ccccc2O1
- AC50 [38]: 12.2 µM (active)

SMILES: Cc1ccc(/N=c2\ssnc2Cl)c([N+](=O)[O-])c1
- IC50 [39]: 4.44 µM (active)
- IC50 [40]: 96.2 µM (active)

SMILES: CC(C)(C)CCN1CCC[C@H](NC(=O)COc2ccccc2F)C1
- EC50 [41]: 10 µM (active)
